Data reported in patent US8202910B2 (Sequella, Inc., priority 2006, dated 2012).
Values after ≈ are worked out from the molar mass of the structure shown. Read-outs that look alike come from different tables or passages of the source.

Legend:
MDR Strain TN576 = experiment: microbe, parasite or virus in culture; assay type: cell-based, Mycobacterium tuberculosis; conditions: for Drug Resistance of MDR Strain: 576 W1; for MIC: Mycobacterium tuberculosis
MDR strain TN587 = experiment: microbe, parasite or virus in culture; assay type: cell-based, Mycobacterium tuberculosis; conditions: for Drug Resistance of MDR Strain: 587 W; for MIC: Mycobacterium tuberculosis
MDR strain TN3086 (3806) = experiment: microbe, parasite or virus in culture; assay type: cell-based, Mycobacterium tuberculosis; conditions: for MIC: Mycobacterium tuberculosis; for Drug Resistance of MDR Strain: 3806 W1
INH-resistant MTB strain = experiment: microbe, parasite or virus in culture; assay type: cell-based, M. tuberculosis; conditions: Mycobacterium tuberculosis
[1] = system: M. tuberculosis clinical isolates (drug susceptible and drug resistant); assay type: cell-based; conditions: more than 30 clinical isolates
EMB-resistant strain = experiment: microbe, parasite or virus in culture; assay type: cell-based, M. tuberculosis; conditions: Mycobacterium tuberculosis

Row | Compound | Drug Resistance of MDR Strain (MDR Strain TN576) | Drug Resistance of MDR Strain (MDR strain TN587) | MIC (MDR Strain TN576; strain 576) [µg/mL] | MIC (MDR strain TN587; TN587, strain 587) [µg/mL] | MIC (MDR strain TN3086 (3806); strain 3806) [µg/mL] | Drug Resistance of MDR Strain (MDR strain TN3086 (3806)) | other results
1 | O=C(O)c1cn(C2CC2)c2cc(N3CCNCC3)c(F)cc2c1=O [Cip, Ciprofloxacin] | S | S |  |  |  |  | 
2 | C[C@@H]1[C@H]2C[C@@H](C[C@H]1NCCNC1CCCCCCC1)C2(C)C [Compound 59, N-(Cyclooctyl)-N′-(1R, 2R, 3R, 5S)-(−)-isopinocampheylethane-1,2-diamine] |  |  | 0.1 | 0.05 | 0.05 |  | 
3 | CC(C)=CCC/C(C)=C/CNCCNC1C2CC3CC(C2)CC1C3 (stereo not drawn) [Compound 109, N-Geranyl-N′-(2-adamanthyl)ethane-1,2-diamine] |  |  | 0.2 | 0.2 | 0.1 |  | MIC (INH-resistant MTB strain): 0.25 µg/mL (≈ 0.756 µM); MIC range [1]: 0.16 to 0.64 µg/mL; MIC (EMB-resistant strain): 0.5 µg/mL (≈ 1.51 µM)
4 | N[C@@H]1CON=C1O [Cyc, Cycloserine] | S | S |  |  |  |  | 
5 | CC[C@@H](CO)NCCN[C@@H](CC)CO [EMB, Ethambutol, reference compound] | R | R |  |  |  | R | MIC (MDR Strain TN576; read-out: MIC of ethambutol, MDR strain, TN576): 12.5 to 25 µM; MIC (MDR strain TN587; TN587, read-out: MIC of ethambutol, MDR strain, TN587): 12.5 to 25 µM; MIC (MDR strain TN3086 (3806); read-out: MIC of ethambutol, MDR strain, TN3086): 12.5 to 25 µM
6 | CCc1cc(C(N)=S)ccn1 [Eth, Ethionamide] | R | S |  |  |  | S | 
7 | NNC(=O)c1ccncc1 [INH, Isoniazid] | R | R |  |  |  | R | 
8 | NC[C@H]1O[C@H](O[C@H]2[C@H](O)[C@@H](O[C@H]3O[C@H](CO)[C@@H](O)[C@H](N)[C@H]3O)[C@H](N)C[C@@H]2N)[C@H](O)[C@@H](O)[C@@H]1O [Kan, Kanamycin] | R | R |  |  |  | R | 
9 | CC1(C)CC2CC(C)(CN2CCNC[C@@H]2CCC3C[C@@H]2C3(C)C)C1 [MP 116] |  |  | 3.15 | 6.25 | 3.15 |  | 
10 | C[C@@H]1C2C[C@@H](C[C@H]1NCCNC[C@@H]1CCC3C[C@@H]1C3(C)C)C2(C)C [MP 117] |  |  | 3.15 | 3.15 | 3.15 |  | 
11 | CO[C@H]1/C=C/O[C@@]2(C)Oc3c(C)c(O)c4c(O)c(c(/C=N/N5CCN(C)CC5)c(O)c4c3C2=O)NC(=O)/C(C)=C\C=C\[C@H](C)[C@H](O)[C@@H](C)[C@@H](O)[C@@H](C)[C@H](OC(C)=O)[C@@H]1C [RIF, Rifampicin] | R | R |  |  |  | R | 
12 | CC1(C)C2CCC(CNCCNCC(c3ccccc3)c3ccccc3)[C@@H]1C2 (stereo partly drawn) [RL 241] |  |  | 1.5 | 1.5 | 1.5 |  | 
13 | [H]/N=C(/N)N[C@H]1[C@H](O)[C@@H](O)[C@H](O[C@@H]2O[C@@H](C)[C@](O)(C=O)[C@H]2O[C@@H]2O[C@@H](CO)[C@H](O)[C@@H](O)[C@@H]2NC)[C@@H](N/C(N)=N\[H])[C@@H]1O [SM, Streptomycin] | R | R |  |  |  | R | 
14 | Capreomycin | R | S |  |  |  |  | 
